Laboratory results published in article PMC10319141, “Imidazoquinolines with improved pharmacokinetic properties induce a high IFNα to TNFα ratio in vitro and in vivo” (Frontiers in Immunology, 2023).
Like-named read-outs stand apart in the source and are kept apart here.

Assays:
[1] = Compound concentrations in organs and blood after 3, 6, 12 µmol/kg s.c. (Figure 4A); type: in vivo, C57BL/6 mice; settings: female, C57BL/6, mouse, sc; for concentration at 8 h: 8 h after treatment; for concentration at 1 h: whole blood (peripheral, tail), 1 h post application, whole blood
Experimental: (§1) All samples were extracted with 3 or 6 volumes acetonitrile containing terbuthylazine as an internal standard (ACN) relative to either sample weight or volume. Liquid samples (plasma, culture medium, cell suspensions in stability experiments) were diluted in either 3 (culture medium, cell suspensions) or 6 (plasma) volumes ACN, pellet and blood samples were extracted by addition of ACN followed by sonication for 5 min. Organ samples were digested with 0.5 µg/mg Proteinase K (Genaxxon) for 1 h at 50°C before being homogenized using a Fastprep FP-24 5G instrument (MP-Biomedicals). Homogenates were diluted with 6 volumes ACN and homogenized again. All extracts were cleared by centrifugation at ~20.000xg for 10 min at 4°C.
(§2) Quantification of analytes was performed on an Agilent 1260/1290 Infinity system fitted with an Agilent C18 Poroshell 120 column (4.6 x 50 mm, 2.7 µm) coupled to a triple quadrupole Sciex API 4000 MS/MS detector. The mobile phase was composed of water containing 0.1% formic acid (eluent A) and acetonitrile containing 0.1% formic acid (eluent B). Gradient used was: 5% B for 0.5 min, to 100% B in 4.5 min, 100% B for 2 min, to 5% B in 0.5 min, 5% for 2.5 min. MS detection parameters are listed in SI Table S1 .
(§3) Formulation. Test compounds were prepared for application in either 1% Tween 80, 9% PEG400 in ultrapure water (Biowest) (i.v., i.p., p.o. application) or 5 mM citric acid in 0.9% saline (Braun) (subcutaneous application). If compounds were administered subcutaneously, injections were carried out into the neck crease.
(§4) Collection of Samples. Mice were bled from the tail vein at various timepoints. Heparin (Sigma) or K2-EDTA (Sigma) was added to blood samples to a final […] concentration of 10-15 Unit or 5 mM. Plasma was generated by centrifugation at 6800xg for 8 min at 4°C and stored at -80°C until analyzed by ELISA or CBA. Animals were sacrificed after the indicated time points by CO2 inhalation. Heart blood and organs for compound quantification by HPLC-MS/MS were collected post mortem and stored at –20°C until extracted as described above.
(§5) (A) Organs were sampled 8 h after treatment and compound concentration was determined via HPLC-MS/MS. Data are presented as mean ± SD. (B) Cytokine levels in tail plasma over time were determined via cytometric bead array. At each sampling timepoint the plasma of mice in one treatment group was pooled.

[2] = test system: Human peripheral blood; assay: Full blood stimulation assay (TNFα/IFNα by ELISA); type: cell-based; settings: 6 h, 8 donors, normalized to maximal concentration per donor; in words
Experimental: Human peripheral blood of healthy donors was diluted in an equal volume of culture medium as described in 3.2, blood was treated with test compounds or controls at various concentrations and incubated at 37°C, 5% CO2 for 6 h. Cells were pelleted by centrifugation at 400xg for 5 min and supernatants were collected.
(§6) Cytokine concentrations in samples were quantified either by ELISA (hTNFα, R&D Systems; hIFNα, Mabtech) or cytometric bead arrays (CBA, LegendPlex mouse anti-virus response panel, BioLegend) according to the manufacturer’s instructions. CBAs were acquired on a ZE5 Cell Analyzer (Bio-Rad) and analyzed using the LegendPlex Software Suite (Qognit/BioLegend). Absorbance of ELISA-samples was quantified using a Versamax microplate reader (Molecular Devices).

[3] = Compound concentrations in organs and plasma after three consecutive daily s.c. treatments (Figure 6B, S7); type: in vivo, mice; settings: for compound plasma level at peak: s.c.; for concentration at 4 h / concentration at 28 h / concentration at 52 h: mouse, liver, sc, read-out: concentration in liver; for concentration at 4 h / concentration at 28 h / concentration at 52 h / levels in brain tissue / concentration in liver: repeated daily s.c. treatment; for levels in brain tissue: in words
Experimental: as §1, §2, §3, §4
Dotted lines indicate the time of repeated compound applications. (A) Cytokine levels in pooled tail plasma of mice from individual treatment groups (n=3 per pool and time point), error bars represent range of two replicate measurements. (B) Peripheral blood was collected from the tail vein before, 15, 30 60, 120, 240, 360 and 480 min after s.c. treatment. Compound concentration in peripheral plasma was analyzed by HPLC-MS/MS, data presented as mean ± SD.
Samples were collected 4 h, 28 h and 52 h after s.c. treatment. Skin samples were sampled
at time points 4 h and 52 h. Compound concentrations were analyzed by HPLC-MS/MS, data

[4] = test system: TNFα and IFNα in peripheral plasma; assay: Cytokine profile in peripheral plasma after equimolar s.c. doses (Figure 4B, Table 2 top); type: in vivo, C57BL/6 mice; settings: for IFNα AUC / TNFα AUC: 8 h period, equimolar doses (top section), pooled plasma of 3 animals; for IFNα plasma levels over the study period: in words
Experimental: as §6, §3, §4, §5

[5] = Compound concentrations in organs after activity-adjusted s.c. doses (Figure 5B); type: in vivo, C57BL/6 mice; settings: 3 µmol/kg s.c., 8 h post compound application; for concentration at 8 h: female, C57BL/6, mouse, sc
Experimental: as §1, §2, §3, §4
Compound concentration in (A) peripheral blood collected via tail bleeding before, 15, 30 60, 120, 240, 360 and 480 min after s.c. compound application and (B) organs collected after 8 h was assessed via HPLC-MS/MS. (A, B) Data are presented as mean ± SD. (C) Levels of TNFα and IFNα as well as (D) IL6, CXCL1, CCL2, IFNβ, IFNγ and IL10 in tail plasma over time were determined via cytometric bead array. Area under the curve (AUC) of each cytokine was plotted against compound concentration.

[6] = Cassette bioavailability i.v., i.p., p.o. (blood and organ concentrations by HPLC-MS/MS); type: in vivo, C57BL/6 mice; settings: for concentration at 1440 min / Cmax: female, C57BL/6, mouse; for Cmax: 15 min after application
Experimental: as §1, §2
Experimental Animals. All animal experiments were carried out in accordance with German law (35/9183.81-7/SYN 06/20). Mice, 8-18 weeks old, were purchased from Janvier Laboratories and maintained in a specific-pathogen-free animal facility with chow and water ad libitum. After arrival mice acclimated for a minimum of 7 days.
as §3, §4
Figure 3 Stability and bioavailability of macrolide conjugates. (A) Stability of A1-mac and A2-mac was measured in human blood, U937 monocytes and RPMI medium over 24 h. […] (B) Peripheral blood was collected 15, 30 60, 120, 180, 240, 360 and 1440 min after compound administration. (C) Organs were sampled 1440 min after compound administration. (A–C) Data are presented as mean ± SD.

[7] = kidney, read-out: concentration in kidney
[8] = liver, read-out: concentration in liver
[9] = day 1, 60 min after application
[10] = day 2, 60 min after application
[11] = day 3, 60 min after application
[12] = kidney, ip, i.p. 2 mg/kg, organs sampled 1440 min after administration, read-out: concentration in kidney
[13] = liver, ip, i.p. 2 mg/kg, organs sampled 1440 min after administration, read-out: concentration in liver
[14] = whole blood (tail vein), iv, i.v. 0.5 mg/kg, tail vein blood

Row | SMILES | concentration at 8 h [1, 7] [nM] | concentration at 8 h [1, 8] [nM] | concentration at 1 h [1] [nM] | relative IFNα induction in human blood [2] | compound plasma level at peak [3, 9] | compound plasma level at peak [3, 10] | compound plasma level at peak [3, 11] | concentration at 4 h ([3]; after 4 h) [nM] | concentration at 28 h ([3]; after 28 h) [nM] | levels in brain tissue [3] | IFNα AUC ([4]; 3 µmol/kg s.c.) [pg·min/mL] | TNFα AUC ([4]; 3 µmol/kg s.c.) [pg·min/mL] | IFNα AUC ([4]; 6 µmol/kg s.c.) [pg·min/mL] | TNFα AUC ([4]; 6 µmol/kg s.c.) [pg·min/mL] | IFNα AUC ([4]; 12 µmol/kg s.c.) [pg·min/mL] | TNFα AUC ([4]; 12 µmol/kg s.c.) [pg·min/mL] | time of TNFα plasma peak post treatment ([4]; 3, 6, 12 µmol/kg s.c.) [min] | Cmax [6, 14] [nM] | Cmax ([6]; whole blood, ip, i.p. 2 mg/kg) [nM] | Cmax ([6]; whole blood, po, p.o. 2 mg/kg) [nM] | also measured
1 | CCCCc1nc2c(N)nc3ccccc3c2n1CCC1CCNCC1 [A1] | 636 | 173 | 1560 | robust and similar | 171 nM | 85 nM | 66 nM | 63 | 82 | baseline or close to baseline levels | 660000 | 6500 | 1.3e+06 | 17000 | 2.5e+06 | 35000 | 120 | – | – | – | concentration at 8 h ([1]; lung, read-out: concentration in lung): 868 nM; concentration at 52 h ([3]; after 52 h): 94 nM; IFNα plasma levels over the study period ([4]; 3, 6, 12 µmol/kg s.c.): stayed elevated over the 8 h period; concentration at 8 h [5, 7]: 469 nM; concentration at 8 h [5, 8]: 45 nM
2 | CCCCc1nc2c(N)nc3ccccc3c2n1CC1CCN(C(=O)CN(C)CC(=O)N(C)[C@H]2C[C@@H](C)O[C@@H](O[C@@H]3[C@@H](C)[C@H](O[C@H]4C[C@@](C)(OC)[C@@H](O)[C@H](C)O4)[C@@H](C)C(=O)O[C@H](CC)[C@@](C)(O)[C@H](O)[C@@H](C)N(C)C[C@H](C)C[C@@]3(C)O)[C@@H]2O)CC1 [A2-mac] | – | – | – | – | – | – | – | – | – | – | – | – | – | – | – | – | – | 352 | 138 | 22 | concentration at 1440 min [6, 12]: 449 nM; concentration at 1440 min [6, 13]: 2520 nM
3 | CCCCc1nc2c(N)nc3ccccc3c2n1CCC1CCN(C(=O)CN(C)CC(=O)N(C)C2CC(C)OC(OC3C(C)C(OC4CC(C)(OC)C(O)C(C)O4)C(C)C(=O)OC(CC)C(C)(O)C(O)C(C)N(C)CC(C)CC3(C)O)C2O)CC1 (stereo not shown) [A1-mac] | 5480 | 5100 | 696 | robust and similar | 755 nM | 585 nM | 639 nM | 2620 | 4460 | baseline or close to baseline levels | 420000 | 6900 | 920000 | 24000 | 3.1e+06 | 76000 | 90 | 392 | 299 | 28 | concentration at 1440 min [6, 12]: 586 nM; concentration at 1440 min [6, 13]: 3390 nM; concentration at 52 h ([3]; after 52 h): 6350 nM; IFNα plasma levels over the study period ([4]; 3, 6, 12 µmol/kg s.c.): stayed elevated over the 8 h period; concentration at 8 h [5, 7]: 2180 nM; concentration at 8 h [5, 8]: 6030 nM
4 | CCOCc1nc2c(N)nc3ccccc3c2n1CC(C)(C)O [RSQ, Resiquimod, reference compound] | – | – | 175 | – | < LLOQ | < LLOQ | < LLOQ | – | – | baseline or close to baseline levels | 2.2e+06 | 330000 | 780000 | 280000 | 800000 | 260000 | 90 | 854 | 123 | 41 | concentration in liver ([6]; i.p. 2 mg/kg, organs sampled 1440 min after administration): < LOD; TNFα concentrations in supernatants of human blood [2]: highest TNFα concentrations; concentration in liver ([3]; after 4 h): < LLOQ; concentration in liver ([3]; after 28 h): < LLOQ; concentration in liver ([3]; after 52 h): < LLOQ; TNFα plasma AUC, times larger than the area for any A1 or A1-mac treated group ([4]; 3 µmol/kg RSQ s.c.): about 4 times; peak TNFα concentrations, times higher than in A1 or A1-mac groups ([4]; 3, 6, 12 µmol/kg s.c.): over 10 times; time at which TNFα and IFNα plasma levels fall close to baseline ([4]; 3, 6, 12 µmol/kg s.c.): 240 min; time of IFNα plasma peak post treatment ([4]; 3, 6, 12 µmol/kg s.c.): 90 min; time of maximal IFNα plasma levels post application ([4]; abstract, in vivo murine): 1 h; concentration in liver [5]: < LLOQ
